# Reference: paper PMC6768323, “Adverse Maternal, Fetal, and Postnatal Effects of Hexafluoropropylene Oxide Dimer Acid (GenX) from Oral Gestational Exposure in Sprague-Dawley Rats” (Environmental Health Perspectives, 2019)
# Several values for one entry are separate records, joined by “and”; a condition that tells them apart may be missing. Identical values can stand only once.
# Tested on: PPAR signaling pathway genes, fetal liver
# Test: Fetal liver (GD18) PPAR gene array, fold induction versus control; maternal oral dosing GD14-18; rows per gene in dose order 1, 3, 10, 30, 62.5, 125, 250, 500 mg/kg/d
# Format: in vivo, Sprague-Dawley rats
# Experimental: A total of three blocks of 15 dams per block were dosed once daily from GD14–18 with either water vehicle (control) or HFPO-DA to evaluate fetal and maternal effects (Figure 1A). The first block of dams was dosed with control, 62.5, 125, 250, or 500mg/kg HFPO-DA ( n=3 dams for each). The second and third blocks of dams were dosed with control, 1, 3, 10, or 30mg/kg HFPO-DA ( n=3 per dose per block). Total sample sizes were n=9 for control, n=6 for 1, 3, 10, 30mg/kg , and n=3 for 62.5, 125, 250, and 500mg/kg HFPO-DA. In the first two blocks, spanning the entire dose range, we evaluated fetal testis testosterone production, fetal testis gene expression, fetal and maternal liver gene expression, fetal body weight, and maternal serum thyroid hormone and lipid concentrations. In the third block, encompassing the lower dose range utilized here, we collected fetal plasma for measuring HFPO-DA concentrations. Across all three blocks we evaluated maternal weight gain during dosing, reproductive output (number of fetuses and resorptions), maternal serum HFPO-DA concentration, and maternal liver weight at necropsy.
# For the first two blocks, spanning the full dose range, late gestation (GD18) dams were euthanized by decapitation at ∼2h after the final oral dose [ ∼0830–1000 hours Eastern Standard Time (EST)]. Trunk blood was collected and serum isolated via centrifugation ( 10,000×g for 15 min at 4°C) in vacutainer tubes, transferred to 1.5-mL microcentrifuge tubes and stored at −80°C . Dam liver weight was recorded and a sample of liver tissue was collected into a polypropylene microcentrifuge tube containing 500μL TRIzol Reagent (Invitrogen) on ice. Fetuses were removed and two randomly selected fetuses per litter were weighed. Fetal testes were collected from all male pups with a single testis from the first three males used for determination of ex vivo testosterone production and the remaining testes were homogenized and preserved in TRIzol Reagent for gene expression analysis. The liver was collected from a single, randomly selected fetus per dam/litter for gene expression analysis and transferred to a polypropylene microcentrifuge tube containing 500μL TRIzol Reagent (Invitrogen) on ice. Both dam and fetal liver samples were individually homogenized using a Bullet Blender (Next Advance) with 1-mm zirconium oxide beads, transferred to clean tubes, and stored at −80°C prior to RNA extraction (see below). Ex vivo fetal testis testosterone production was measured as previously reported ([Wilson et al. 2004b]) except the radioimmunoassay (RIA) utilized here was supplied by ALPCO (Catalog No. 72-TESTO-CT2, ALPCO). Briefly, one testis was isolated from each of three separate male fetuses in each litter and incubated in a humidified atmosphere at 37°C for 3 h in 500μL of M-199 media (phenol red–free; Hazelton Biologics, Inc.) supplemented with 10% dextran-coated charcoal-stripped fetal bovine serum (Hyclone Laboratories) in 24-well plates under gentle agitation. After incubation, media were removed and stored in siliconized microcentrifuge tubes at −80°C until RIA analyses, which were performed according to manufacturer specifications.
# Gene expression in fetal testes and fetal/maternal livers was assessed using reverse transcriptase real-time PCR of cDNA synthesized from RNA extracted from sample homogenates. RNA extraction was conducted according to TRIzol Reagent manufacturer specifications using chloroform and isopropanol. Following extraction, RNA was purified using the RNeasy Mini Kit (Catalog No. 74104; Qiagen). RNA concentration and purity (260:280 ratio ≥1.8 ) were determined with a NanoDrop 2000 spectrophotometer (Thermo Scientific). For the fetal testes, a 96-well gene array plate was previously custom designed to contain 89 target genes and 3 housekeeping genes, an intra-assay control, a genomic DNA control, a reverse transcriptase control, and a positive PCR control [see Table S1; SABioscience; ([Hannas et al. 2012])]. […]
smiles,measurement,setting,value
"O=C(O)C(F)(OC(F)(F)C(F)(F)C(F)(F)F)C(F)(F)F (stereo not shown) [HFPO-DA, Hexafluoropropylene oxide dimer acid]",Acox3,dose order,1.1 fold and 1.3 fold and 1.2 fold and 1.0 fold
same,Acsl3,dose order,1.0 fold and 1.1 fold and 1.2 fold and 1.3 fold and 1.4 fold and 1.5 fold
same,Acsl4,dose order,1.0 fold and 1.2 fold and 1.5 fold and 1.6 fold and 1.7 fold
same,Acsl5,dose order,0.8 fold and 0.9 fold and 1.1 fold and 1.0 fold
same,Apoa1,dose order,1.1 fold and 1.2 fold and 0.9 fold and 1.0 fold and 1.5 fold
same,Apoa5,dose order,1.4 fold and 1.3 fold and 1.5 fold and 1.6 fold and 1.0 fold
same,Apoc3,dose order,1.0 fold and 1.1 fold and 1.3 fold and 0.9 fold and 1.2 fold and 1.4 fold
same,Apoe,dose order,1.1 fold and 0.9 fold and 1.0 fold and 1.2 fold
same,Aqp7,dose order,1.0 fold and 1.3 fold and 1.5 fold and 1.6 fold and 1.7 fold and 1.8 fold
same,Cd36,dose order,0.8 fold and 0.9 fold
same,Clu,dose order,1.1 fold and 1.4 fold and 1.3 fold and 1.2 fold
same,Creb1,dose order,1.0 fold and 1.1 fold and 0.9 fold and 0.8 fold
same,Crebbp,dose order,1.0 fold and 1.1 fold and 0.9 fold
same,Cyp27a1,dose order,1.1 fold and 1.0 fold and 0.9 fold
same,Dgat1,dose order,1.1 fold and 1.2 fold and 1.4 fold and 1.5 fold
same,Eln,dose order,1.6 fold and 1.0 fold and 1.3 fold and 1.1 fold and 1.5 fold and 1.4 fold and 1.2 fold
same,Ep300,dose order,1.0 fold and 1.2 fold and 0.9 fold
same,Fabp2,dose order,0.9 fold and 1.0 fold and 1.1 fold and 0.7 fold
same,Fabp3,dose order,1.0 fold and 1.2 fold and 1.1 fold and 0.8 fold
same,Fabp4,dose order,1.4 fold and 1.5 fold and 1.2 fold and 0.9 fold and 1.0 fold
same,Fabp5,dose order,1.1 fold and 1.0 fold and 1.3 fold and 1.4 fold and 1.5 fold and 1.8 fold
same,Fabp7,dose order,1.0 fold and 1.3 fold and 1.4 fold and 1.8 fold and 1.9 fold
same,Fads2,dose order,1.1 fold and 1.2 fold and 1.6 fold and 1.8 fold and 2.0 fold and 2.2 fold and 2.1 fold
same,Fgr,dose order,0.9 fold and 1.3 fold and 1.0 fold and 1.1 fold and 0.8 fold
same,Gk,dose order,1.4 fold and 1.9 fold and 1.7 fold and 2.0 fold and 1.0 fold and 1.2 fold
same,Hif1a,dose order,1.0 fold and 1.1 fold and 1.2 fold
same,Hspd1,dose order,1.1 fold and 1.0 fold and 1.2 fold and 1.3 fold
same,Ilk,dose order,1.0 fold and 1.2 fold and 1.1 fold
same,Klf10,dose order,1.0 fold and 1.1 fold and 1.5 fold and 1.7 fold and 1.6 fold and 1.4 fold
same,Lpin1,dose order,1.0 fold and 1.2 fold and 0.8 fold and 0.9 fold and 1.3 fold
same,Lpl,dose order,1.0 fold and 1.1 fold and 1.2 fold and 1.4 fold and 1.3 fold and 1.5 fold
same,Med1,dose order,1.0 fold and 1.1 fold and 0.9 fold
same,Mmp9,dose order,1.2 fold and 1.5 fold and 1.0 fold and 1.1 fold and 0.9 fold
same,Ncoa3,dose order,1.0 fold and 1.3 fold and 0.9 fold
same,Ncoa6,dose order,1.0 fold and 1.1 fold and 0.9 fold
same,Nr1h3,dose order,1.1 fold and 1.2 fold and 1.0 fold
same,Pck2,dose order,0.9 fold and 1.1 fold and 1.0 fold
same,Pdpk1,dose order,0.9 fold and 1.1 fold and 0.8 fold and 1.0 fold
same,Pltp,dose order,1.5 fold and 1.0 fold and 1.4 fold and 1.1 fold
same,Ppara,dose order,1.1 fold and 1.2 fold and 0.9 fold and 1.4 fold and 1.3 fold
same,Ppard,dose order,0.9 fold and 1.4 fold and 1.1 fold and 1.0 fold and 1.2 fold
same,Ppargc1a,dose order,0.9 fold and 1.0 fold and 0.7 fold and 0.6 fold and 0.5 fold
same,Ppargc1b,dose order,1.1 fold and 1.3 fold and 1.2 fold and 0.9 fold and 1.0 fold
same,Pprc1,dose order,1.0 fold and 1.1 fold and 0.9 fold and 1.2 fold
same,Pten,dose order,0.9 fold and 1.0 fold and 1.1 fold and 0.8 fold
same,Rxra,dose order,1.0 fold and 1.2 fold and 1.1 fold
same,Rxrb,dose order,1.0 fold and 1.2 fold and 1.1 fold and 0.9 fold
same,Sirt1,dose order,0.9 fold and 1.0 fold and 0.8 fold
same,Slc27a1,dose order,1.0 fold and 1.1 fold and 0.9 fold
same,Slc27a4,dose order,1.0 fold and 1.2 fold and 0.9 fold
same,Slc27a5,dose order,1.2 fold and 1.1 fold and 0.9 fold and 1.0 fold
same,Slc27a6,dose order,1.4 fold and 1.1 fold and 1.0 fold and 1.3 fold and 1.7 fold and 1.5 fold
same,Smarcd3,dose order,1.2 fold and 1.0 fold and 0.9 fold and 1.1 fold
same,Sorbs1,dose order,1.2 fold and 1.5 fold and 1.3 fold and 0.9 fold and 1.1 fold and 1.0 fold
same,Tgs1,dose order,0.9 fold and 1.0 fold and 0.8 fold
same,Txnip,dose order,0.9 fold and 1.1 fold and 1.2 fold
same,number of significantly up-regulated PPAR pathway genes,"fetal liver, ANOVA p<0.0001",28 genes
same,dose with up-regulated PPAR pathway gene expression in maternal and fetal livers,oral GD14-18,≥ 1 mg/kg
